Data from patent US20180284123A1, “BARCODED RAPID ASSAY PLATFORM USEFUL FOR EFFICIENT ANALYSIS OF CANDIDATE MOLECULES AND METHODS OF MAKING AND USING THE PLATFORM” (California Institute of Technology, priority 2017, published 2018).
Numbered stars: 1 amine (or outer) side, 2 acyl side, 3 side chain; on linkers, the order of the positions; unused ones are H or OH. Bridge positions count the residues as written; N and C are the ends. Square brackets hold non-standard residues; d marks the D form. Triazole bridges read from a SMILES are 1,4-linked. Peptide text beside a SMILES is read from it. * marks the point of attachment. ξ: configuration not given here. Biotin = O=C1N[C@H]2[C@H](CS[C@H]2CCCCC(=O)*)N1; Lys(N3) = [N-]=[N+]=NCCCC[C@H](N)C(=O)O; ξLys(N3) = [N-]=[N+]=NCCCCC(N)C(=O)O; Ethylenediamine = C(CN[*:2])N[*:1]; PEG5 = NCCOCCOCCOCCOCCOCCC(=O)O; Pra = C#CC[C@H](N)C(=O)O

How the values were obtained:
KRAS [1] = target: T1, KRAS (Homo sapiens, UniProt P01116); assay: B-RAP surface immunofluorescent assay, PCC ligand KRas EC50; type: binding; conditions: 10 μM KRas well of plate #1, pixel by pixel
T1 construct: His6-tagged human KRas Isoform 4B (residues 1-169); His6; made in house; host or cells: E. coli BL21(DE3), PQE80 vector
Protocol: The barcode patterned microchip surface was partitioned into 16 individual microwells using a pre-fabricated PDMS slab. Individual biotinylated PCC candidates were complexed to specific SAC-DNA conjugates, combined into a cocktail, and then self-assembled, via DNA hybridization, onto designated barcode stripes (FIGS. 2-4). Incubation with a specific concentration of the target protein preceded incubation with a primary capture antibody and then a fluorophore-conjugated secondary detection antibody. During assay execution, each well represents a different target concentration or assay condition. Once developed, the fluorescence of the barcodes is digitized using a GenePix 4400A array scanner, with an excitation laser power optimized to a power level of 40% (60 W), which maximizes detection sensitivity while also minimizing signal saturation. Data extraction occurs using 10 μm radius circles, taken along the length of a barcode stripe. A fluorescence signal representing the average of all the pixels within a given circle is collected. A total of ten circles (data-blocks) are measured along a 180 μm span of the middle portion for each individual barcode lane in a given well. 10 μM KRas protein gave an average F635 of 47,868.7, with a standard deviation of 4154.53. 1 μM KRas protein gave an average F635 of 11437.6, with a standard deviation of 1602.202. 100 nM KRas protein gave an average F635 of 1780.6, with a standard deviation of 236.38. This illustrates the intensity across a stripe compared to the intensity from the data-block extraction. After extraction the data is background corrected. The background signal arises from (a) non-specific binding of the primary and secondary antibodies (independent of [KRas]), but can vary across different barcode stripes), and (b) non-specific binding of KRas protein ([KRas] dependent). Background (a) was assessed by measuring the average signal in the null protein well for each stripe. Background (b) was assessed by measuring the average fluorescence for the dummy ligand (Biotin* probe) that was in each well. The background subtracted data was then graphed in Graphpad Prism 7 and fitted to a sigmoidal curve (Hill coefficient=1).
Measurement of PCC Ligand KRas EC50 with the Barcode Rapid Assay Platform
Protein Incubation Buffer: Tris-buffered saline (TBS)+0.05% Tween20 (TBST)
A pre-fabricated PDMS template was aligned onto the DNA barcode microchip, and the microchip was taped into a 10 cm petri dish. The wells on the platform were wet with 50 μL PBST before filling with blocking buffer and placing into a 37° C. incubator for 1 hr. Concurrently, 40 μL 1% BSA in PBS solutions containing 750 nM of a SAC-DNA conjugate and 3.75 μM of one biotinylated PCC ligand or biotin-A20-Cy3 blank were prepared for each SAC-DNA conjugate. The biotinylated ligands were allowed to complex with the SAC protein for one hour before pooling the SAC-DNA-ligand solutions (final [SAC-DNA-ligand conjugates]=50 nM). The blocking buffer was aspirated and each well was loaded with the SAC-DNA-ligand conjugates cocktail for hybridization with the DNA barcode at 37° C. for one hour. The wells were washed with PBST (3×) before loading serially diluted solutions of KRas protein in protein buffer (0 to 400 μM). After shaking at RT for one hour, the wells were rinsed with PBST (5×), making sure to pipet up/down with the first addition of PB ST. A (100:1) dilution of CST rabbit anti-Ras Ab (#39655) in 1° ab buffer was added to each well before shaking at RT for one hour. After rinsing the wells with PBST (3×), the wells were loaded with a (200:1) dilution of Abcam goat anti-rabbit-Alexafluor 647 linked ab (ab150079) in 2° ab buffer before shaking at RT for one hour. A final rinse of the wells with PBST (3×) proceeded peeling off the PDMS slab from the barcode microchip and dipping the barcode into the following solutions: PBS, (1:1) PBS: MQ H2O, MQ H2O (2×). […]

KRAS [2] = target: T1, KRAS; assay: GTPase Glo assay of intrinsic KRas GTPase activity; type: biochemical
Protocol: The intrinsic GTPase activity of WT KRas protein was measured using the GTPase-Glo Assay Kit (#V7681) from Promega Corporation (Madison, Wis.) on opaque white 96-well plates (#6005290) from Perkin Elmer Life Sciences (Waltham, Mass.). Luminescence was recorded on the Flexstation 3 plate reader used for multi-well ELISAs.
KRas inhibition assays were carried out using a GTPase Glo Assay kit from Promega. Each candidate inhibitor PCC was initially tested by combining a concentration series of the ligand with 10 μM KRas protein in an opaque white 96-well plate and incubated with 5 μM 5′-guanosine triphosphate (GTP) for two hours. The remaining GTP was […]. Chemiluminescence was measured using a Flexstation 3 plate reader (All wavelengths mode, 500 ms integration), and plotted using Graphpad Prism 7. […] All measurements were done in triplicate.
The GTPase assays were run in triplicate on a multi-well plate using the GTPase Glo Assay kit from Promega with 10 μM KRas protein and varying concentrations of ligand (1 μM to 100 μM L1a, L8 and 2.5 μM to 250 μM L2). All reagents were warmed to RT before use. A single opaque white 96-well plate was charged with 12.5 μL GTPase/GAP buffer (GTPase buffer w/ 1 mM DTT), 10 μM KRas in GTPase/GAP buffer, or 10 μM KRas protein with either L1a, L2, or L8. Running the survey assays on the same plate allowed for direct comparison of the curves, but it necessitated the use of the first row/column on the multi-well plate which introduced some noise to the low ligand concentration points. A 12.5 μL aliquot of a 2×GTP solution (10 μM rGTP in GTPase Buffer) was then added to each well before allowing the plate to shake at RT for two hours (initial GTPase inhibition assay). The GTPase Glo reagent was reconstituted in the GTPase Glo Buffer (4 μL GTPase Glo (500×) reagent, 1996 μL GTPase Glo Buffer, 1 μL 10 mM ADP) immediately before adding 25 μL to each well. Shaking at RT for thirty minutes preceded the addition of 50 μL of the Detection reagent to each well. The plate was covered and incubated for a total of ten minutes before reading the luminescence with a Flexstation 3 plate reader (All wavelengths mode, 500 ms integration time), graphed using Graphpad Prism 7 (Sigmoidal 4PL mode), and an IC50 value was calculated.
For the full GTPase inhibition curve for L2, the above procedure was followed with the change that the incubation with KRas occurred over or four hours rather than two.
Consequently, the best three ligand fractions L1a, L2, and L8 were probed in a functional, solution phase assay for their ability to disrupt the intrinsic GTPase enzymatic activity of KRas protein. This assay measures the enzymatic conversion of GTP to GDP by KRas—a process that can potentially be inhibited. After incubation, an added GTPase Glo™ reagent converts the remaining GTP to ATP, and the ATP is converted into a chemiluminescent signal. Thus, higher chemiluminescence translates to lower KRas enzymatic activity. For the measurements, a fixed [KRas protein] is incubated with varying ligand concentrations. A concentration of 10 μM KRas protein was selected after generating a standard curve for the intrinsic KRas GTPase activity. KRas is a slow acting enzyme, so a KRas/PCC incubation time of two hours was used for the initial survey scans, while four hour incubation times were used for the higher resolution data. […] Thus, the modulation of KRas activity by L2 was recorded with an expanded concentration range.

[3] = survey assays, 10 μM KRas, two hour incubation

T1 sequence (P01116 1-169 isoform P01116-2): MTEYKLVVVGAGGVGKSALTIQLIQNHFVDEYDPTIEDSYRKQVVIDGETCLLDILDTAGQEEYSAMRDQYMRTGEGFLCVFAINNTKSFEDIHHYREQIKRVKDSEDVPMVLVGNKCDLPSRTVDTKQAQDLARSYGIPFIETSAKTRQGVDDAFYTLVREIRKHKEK

Structure (SMILES) | Avg F635, Full Centroid (KRAS [1]; full centroid) | Avg F635, Full Lane (KRAS [1]; full lane) | avg F635, Left Part Centroid (KRAS [1]; left part of centroid) | avg F635, Middle Part Centroid (KRAS [1]; middle part of centroid) | avg F635, Right Part Centroid (KRAS [1]; right part of centroid) | effect on the KRas protein's GTPase activity (KRAS [2]; [3]) | concentration above which ligand switches from weakly activating to strongly inhibiting (KRAS [2]; expanded concentration range, 10 μM KRas) | Hill coefficient of the titration curve (KRAS [2]; full inhibition curve, four-hour incubation) | rGTP hydrolyzed (KRAS [2]; ligand-only (no KRas) wells) | relative potency as inhibitor of KRas GTPase activity (KRAS [2]; [3])
CCC(C)[C@@H]1NC(=O)CNC(=O)[C@H](Cc2cnc[nH]2)NC(=O)[C@@H](N)Cc2cn(nn2)CCCC[C@@H](C(=O)NCCOCCOCCOCCOCCOCCC(=O)NCCNC(=O)CCCC[C@@H]2SC[C@@H]3NC(=O)N[C@@H]32)NC(=O)CNC(=O)[C@H](C(C)C)NC1=O (single isomer, unassigned) [Ligand L1a, HGIVG] | 20134 | 18768 | 17838 | 20725 | 21906 | inhibitory effect | – | – | – | –
C[C@@H](O)[C@@H]1NC(=O)[C@@H](N)Cc2cn(nn2)CCCC[C@@H](C(=O)NCCOCCOCCOCCOCCOCCC(=O)NCCNC(=O)CCCC[C@@H]2SC[C@@H]3NC(=O)N[C@@H]32)NC(=O)[C@H](Cc2ccc(O)cc2)NC(=O)[C@H](Cc2ccccc2)NC(=O)[C@H](CC(N)=O)NC(=O)[C@H](CC(=O)O)NC1=O [Ligand L8, TDNFY] (H-[Pra]TDNFY[Lys(N3)][PEG5]-{Ethylenediamine-Biotin}; triazole 1-7) | – | – | – | – | – | inhibitory effect | – | – | – | –
CC(C)[C@@H]1NC(=O)[C@@H]2CCCN2C(=O)[C@H](C(C)C)NC(=O)CNC(=O)[C@H](CCC(=O)O)NC(=O)[C@@H](N)Cc2cn(nn2)CCCCC(C(=O)NCCOCCOCCOCCOCCOCCC(=O)NCCNC(=O)CCCC[C@@H]2SC[C@@H]3NC(=O)N[C@@H]32)NC1=O (stereo partly drawn) [Ligand L2, EGVPV] (H-[Pra]EGVPV[ξLys(N3)][PEG5]-{Ethylenediamine-Biotin}; triazole 1-7) | – | – | – | – | – | inhibitory effect | above 20 μM | ~10 | Less than 5% | most potent
